Measurements taken from PubChem BioAssay AID1963429 (Molecular Pharmacology Branch, DTP, NCI, 2024).

Tested on: 126254-015-R-J1-PDC complex spheroid growth, % test/control
Test: Anticancer human tumor 126254-015-R-J1-PDC patient-derived soft tissue sarcoma cell line growth inhibition [Asc]
Conditions: for IC50: curve of first compound; for viability, T/C: stronger effect = lower value
How it was run: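 Spheroid model: tumor line + HUVEC + hMSC. Single agents and combinations; top conc. at/near clinical Cmax (10 microM if undetermined), half-log dilutions. DMSO stocks at 800-fold test concentration.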

[1] = second compound 0.03 µM, first compound 0.0316 µM
[2] = second compound 0.03 µM, first compound 0.1 µM
[3] = second compound 0.03 µM, first compound 0.316 µM
[4] = second compound 0.03 µM, first compound 1 µM
[5] = second compound 0.0949 µM, first compound 0.0316 µM
[6] = second compound 0.0949 µM, first compound 0.1 µM
[7] = second compound 0.0949 µM, first compound 0.316 µM
[8] = second compound 0.0949 µM, first compound 1 µM
[9] = second compound 0.3 µM, first compound 0.0316 µM
[10] = second compound 0.3 µM, first compound 0.1 µM
[11] = second compound 0.3 µM, first compound 0.316 µM
[12] = second compound 0.3 µM, first compound 1 µM
[13] = second compound 0.949 µM, first compound 0.0316 µM
[14] = second compound 0.949 µM, first compound 0.1 µM
[15] = second compound 0.949 µM, first compound 0.316 µM
[16] = second compound 0.949 µM, first compound 1 µM
[17] = second compound 3 µM, first compound 0.0316 µM
[18] = second compound 3 µM, first compound 0.1 µM
[19] = second compound 3 µM, first compound 0.316 µM
[20] = second compound 3 µM, first compound 1 µM
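Further: spheroids exposed to compound for seven days.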
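Wherever viability, T/C is given: 100% = DMSO vehicle control wells.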

## CCN1CCN(Cc2ccc(Nc3ncc(F)c(-c4cc(F)c5nc(C)n(C(C)C)c5c4)n3)nc2)CC1 + CCN1C(C(=O)NC23CCC(C(=O)O)(CC2)CC3)C(c2cccc(Cl)c2F)C2(C(=O)Nc3cc(Cl)ccc32)C12CCCCC2
Second compound 0.03 µM
  IC50: > 1 µM
Second compound 0.0949 µM
  IC50: > 1 µM
Second compound 0.3 µM
  IC50: > 1 µM
Second compound 0.949 µM
  IC50: > 1 µM
Second compound 3 µM
  IC50: > 1 µM
Second compound 0.03 µM, first compound 0.00316 µM
  viability, T/C: 87.6%
Second compound 0.03 µM, first compound 0.01 µM
  viability, T/C: 93.2%
[1]
  viability, T/C: 99.5%
[2]
  viability, T/C: 91.3%
[3]
  viability, T/C: 105%
[4]
  viability, T/C: 109%
Second compound 0.0949 µM, first compound 0.00316 µM
  viability, T/C: 91.2%
Second compound 0.0949 µM, first compound 0.01 µM
  viability, T/C: 94.9%
[5]
  viability, T/C: 97%
[6]
  viability, T/C: 102%
[7]
  viability, T/C: 91.3%
[8]
  viability, T/C: 109%
Second compound 0.3 µM, first compound 0.00316 µM
  viability, T/C: 89%
Second compound 0.3 µM, first compound 0.01 µM
  viability, T/C: 96.9%
[9]
  viability, T/C: 96.6%
[10]
  viability, T/C: 89.8%
[11]
  viability, T/C: 101%
[12]
  viability, T/C: 105%
Second compound 0.949 µM, first compound 0.00316 µM
  viability, T/C: 99.5%
Second compound 0.949 µM, first compound 0.01 µM
  viability, T/C: 98.3%
[13]
  viability, T/C: 92.2%
[14]
  viability, T/C: 88.8%
[15]
  viability, T/C: 122%
[16]
  viability, T/C: 113%
Second compound 3 µM, first compound 0.00316 µM
  viability, T/C: 96.1%
Second compound 3 µM, first compound 0.01 µM
  viability, T/C: 93.8%
[17]
  viability, T/C: 96.3%
[18]
  viability, T/C: 94.7%
[19]
  viability, T/C: 106%
[20]
  viability, T/C: 104%

## NC1CCC(NC2CC2c2ccccc2)CC1 (stereo not given) + CNC(C)C(=O)NC1CN(S(=O)(=O)c2cccc(S(=O)(=O)N3CCC4CCC(C(=O)NC(c5ccccc5)c5ccccc5)N4C(=O)C(NC(=O)C(C)NC)C3)c2)CCC2CCC(C(=O)NC(c3ccccc3)c3ccccc3)N2C1=O
Second compound 0.01 µM
  IC50: > 0.1 µM
Second compound 0.0316 µM
  IC50: > 0.1 µM
Second compound 0.1 µM
  IC50: > 0.1 µM
Second compound 0.316 µM
  IC50: > 0.1 µM
Second compound 1 µM
  IC50: > 0.1 µM
Second compound 0.01 µM, first compound 0.000316 µM
  viability, T/C: 86.3%
Second compound 0.01 µM, first compound 0.001 µM
  viability, T/C: 89.1%
Second compound 0.01 µM, first compound 0.00316 µM
  viability, T/C: 87.1%
Second compound 0.01 µM, first compound 0.01 µM
  viability, T/C: 75.5%
Second compound 0.01 µM, first compound 0.0316 µM
  viability, T/C: 80.5%
Second compound 0.01 µM, first compound 0.1 µM
  viability, T/C: 75%
Second compound 0.0316 µM, first compound 0.000316 µM
  viability, T/C: 79.2%
Second compound 0.0316 µM, first compound 0.001 µM
  viability, T/C: 81.6%
Second compound 0.0316 µM, first compound 0.00316 µM
  viability, T/C: 77.5%
Second compound 0.0316 µM, first compound 0.01 µM
  viability, T/C: 77.3%
Second compound 0.0316 µM, first compound 0.0316 µM
  viability, T/C: 78.1%
Second compound 0.0316 µM, first compound 0.1 µM
  viability, T/C: 70.6%
Second compound 0.1 µM, first compound 0.000316 µM
  viability, T/C: 70.3%
Second compound 0.1 µM, first compound 0.001 µM
  viability, T/C: 71.3%
Second compound 0.1 µM, first compound 0.00316 µM
  viability, T/C: 72.2%
Second compound 0.1 µM, first compound 0.01 µM
  viability, T/C: 69.6%
Second compound 0.1 µM, first compound 0.0316 µM
  viability, T/C: 68.8%
Second compound 0.1 µM, first compound 0.1 µM
  viability, T/C: 68%
Second compound 0.316 µM, first compound 0.000316 µM
  viability, T/C: 62.2%
Second compound 0.316 µM, first compound 0.001 µM
  viability, T/C: 71.6%
Second compound 0.316 µM, first compound 0.00316 µM
  viability, T/C: 65%
Second compound 0.316 µM, first compound 0.01 µM
  viability, T/C: 54.5%
Second compound 0.316 µM, first compound 0.0316 µM
  viability, T/C: 61.7%
Second compound 0.316 µM, first compound 0.1 µM
  viability, T/C: 57.8%
Second compound 1 µM, first compound 0.000316 µM
  viability, T/C: 49.5%
Second compound 1 µM, first compound 0.001 µM
  viability, T/C: 56.5%
Second compound 1 µM, first compound 0.00316 µM
  viability, T/C: 54.5%
Second compound 1 µM, first compound 0.01 µM
  viability, T/C: 50.9%
Second compound 1 µM, first compound 0.0316 µM
  viability, T/C: 53.8%
Second compound 1 µM, first compound 0.1 µM
  viability, T/C: 53%

## C#Cc1c(F)ccc2cc(O)cc(-c3ncc4c(N5CC6CCC(C5)N6)nc(OCC56CCCN5CC(F)C6)nc4c3F)c12 (stereo not given) + CCN1C(C(=O)NC23CCC(C(=O)O)(CC2)CC3)C(c2cccc(Cl)c2F)C2(C(=O)Nc3cc(Cl)ccc32)C12CCCCC2
Second compound 0.03 µM
  IC50: > 10 µM
Second compound 0.0949 µM
  IC50: > 10 µM
Second compound 0.3 µM
  IC50: > 10 µM
Second compound 0.949 µM
  IC50: > 10 µM
Second compound 3 µM
  IC50: > 10 µM
[1]
  viability, T/C: 96.1%
[2]
  viability, T/C: 102%
[3]
  viability, T/C: 100%
[4]
  viability, T/C: 96.2%
Second compound 0.03 µM, first compound 3.16 µM
  viability, T/C: 95.5%
Second compound 0.03 µM, first compound 10 µM
  viability, T/C: 79.4%
[5]
  viability, T/C: 101%
[6]
  viability, T/C: 95.3%
[7]
  viability, T/C: 96.2%
[8]
  viability, T/C: 84.8%
Second compound 0.0949 µM, first compound 3.16 µM
  viability, T/C: 87.3%
Second compound 0.0949 µM, first compound 10 µM
  viability, T/C: 69.9%
[9]
  viability, T/C: 99%
[10]
  viability, T/C: 104%
[11]
  viability, T/C: 97.7%
[12]
  viability, T/C: 101%
Second compound 0.3 µM, first compound 3.16 µM
  viability, T/C: 99.2%
Second compound 0.3 µM, first compound 10 µM
  viability, T/C: 88%
[13]
  viability, T/C: 92%
[14]
  viability, T/C: 103%
[15]
  viability, T/C: 94.9%
[16]
  viability, T/C: 88.7%
Second compound 0.949 µM, first compound 3.16 µM
  viability, T/C: 97.3%
Second compound 0.949 µM, first compound 10 µM
  viability, T/C: 93%
[17]
  viability, T/C: 103%
[18]
  viability, T/C: 94%
[19]
  viability, T/C: 86.1%
[20]
  viability, T/C: 98.6%
Second compound 3 µM, first compound 3.16 µM
  viability, T/C: 86.2%
Second compound 3 µM, first compound 10 µM
  viability, T/C: 78.5%
